Measurements published in patent US9598677B2, “Use of human biliverdin reductase and fragments thereof for the treatment of protein kinase C-delta and ERK related conditions” (University of Rochester, priority 2009, dated 2017).
Ends that are not written are not given here. * marks the point of attachment. Myristoyl = CCCCCCCCCCCCCC(=O)*

Tests used:
PKC-δ [1] = molecular target: T1, PKC-δ (Homo sapiens, UniProt Q05655); assay: PKC-δ activity assay in situ in 293A cells; format: cell-based; set-up: The human PKC-δ open reading frame was also cloned in the same vectors; expressed in transfected cells; host or cells: HEK 293A; conditions: 20 μM, added 30 min prior to treatment, FIG. 3C
Procedure: The PKC-δ activity assay in situ was performed by a modification of procedures detailed by Williams and Schrier (Williams et al., Glucose-Induced Protein Kinase C Activity Regulates Arachidonic Acid Release and Eicosanoid Production by Cultured Glomerular Mesangial Cells,” J. Clin. Invest. 92:2889-2896 (1993), which is hereby incorporated by reference in its entirety). Cells were seeded into 48-well plates and transfected with 0.1 μg/well pcDNA3-hBVR. After 24 h, the medium was replaced with a starvation medium (0.1% serum) and incubation continued for another 24 h to synchronize cells. In some wells, PKC inhibitor Rottlerin (20 μM) was added 30 min before addition of PMA (100 nM) for 15 min. In some wells, hBVR-derived peptides were introduced to cells in their myristoylated form. Cells were washed with medium and incubated for 10 min at 30° C. in 50 μl of kinase assay buffer (137 mM NaCl, 5.4 mM KCl, 10 mM MgCl2, 0.3 mM Na2HPO4, 0.4 mM KH2PO4, 25 mM β-glycerophosphate, 5.5 mM D-glucose, 5 mM EGTA, 1 mM CaCl2, 20 mM HEPES (pH 7.2), 50 μg/ml digitonin, 120 μg/ml of PKC-δ specific substrate (ARRKRKGSFFGG; SEQ ID NO: 52) and 100 μM ATP labeled with 10 μCi/ml [γ-^32P]-ATP). The reaction was stopped with the addition of 25 μl of ice-cold 30% (wt/vol) TCA. The TCA-soluble fraction samples were transferred to p81 phospho-cellulose filters. […]

hBVR and PKC-δ = molecular target: T2, hBVR and PKC-δ (Homo sapiens, UniProt Q05655); assay: Co-immunoprecipitation of hBVR and PKC-δ (anti-HA); format: cell-based; conditions: myristoylated peptide 2 h, then IGF-1, FIG. 9B
T2 construct: The human PKC-δ open reading frame was amplified by PCR from a human brain cDNA library; expressed in transfected cells; host or cells: HEK293A
Procedure: (§1) Immunoprecipitation was performed on cell lysates prepared as described previously (Lerner-Marmarosh et al., “Regulation of TNF-alpha-Activated PKC-zeta Signaling By the Human Biliverdin Reductase: Identification of Activating and Inhibitory Domains of the Reductase,” FASEB J. 21:3949-3962 (2007), which is hereby incorporated by reference in its entirety). Immunoprecipitates were separated by SDS PAGE, and the proteins blotted to nitrocellulose membrane. The antibodies used for precipitation and for probing the membranes are as described in the specific figure legends.
(§2) Cell Culture, infection, transfection, and co-immunoprecipitation: HEK293A cells were grown and transfected with pcDNA3-HA-hBVR or pcDNA3-PKC-δ plasmids using conditions described elsewhere (Kravets et al., “Biliverdin Reductase, a Novel Regulator for Induction of Activating Transcription Factor-2 and Heme Oxygenase-1,” J. Biol. Chem. 279(19):19916-19923 (2004); Maines et al., “Human Biliverdin Reductase, a Previously Unknown Activator of Protein Kinase C BetaII,” J. Biol. Chem. 282(11):8110-8122 (2007), which are hereby incorporated by reference in their entirety), and overexpression was confirmed by western blotting. […]

PKC-δ and ERK1/2 = molecular target: T3, PKC-δ and ERK1/2 (Homo sapiens, UniProt P27361+P28482+Q05655); assay: Co-immunoprecipitation of PKC-δ and ERK1/2 (anti-ERK1/2); format: cell-based; conditions: myristoylated peptide, IGF-1, FIG. 9D
T3 construct: The human PKC-δ open reading frame was amplified by PCR from a human brain cDNA library; expressed in transfected cells; host or cells: HEK293A (PKC-δ transfected; ERK1/2 endogenous)
Procedure: as §1, §2

recombinant human PKC-δ = assay: PKC-δ kinase assay in vitro (p81 filter / autoradiography); format: biochemical; conditions: for phosphorylation of variant peptides as PKC-δ substrates: FIG. 4C; for phosphate incorporated into hBVR-derived peptides by PKC-δ: 10 μM peptide, 30 min at 30° C., FIG. 6C
Procedure: Measurement of PKC-δ activity: In vitro kinase activity assays were performed with active recombinant human PKC-δ kinase (as a GST fusion protein). PKC-δ assay in vitro was performed using 5 ng purified enzyme in a 50 μl assay containing 50 mM HEPES pH 7.4, 10 mM MgCl2, 0.2 mM DTT, sonicated lipid activators (0.5 μg phosphatidylserine and 0.05 μg diacylglycerol) or lipid activators plus PMA (as indicated in appropriate experiments) and PKC-δ substrates. The reaction was started by the addition of 50 μM ATP labeled with 5 μCi [γ-^32P]-ATP. Incubation was performed for 15 min at 30° C., unless otherwise stated. The reaction was terminated on ice, either by the addition of Laemmli buffer followed by SDS-PAGE, transferred to PVDF membrane, and autoradiography, or by the addition of 1 volume 10% phosphoric acid for p81 transfer as described below. For autophosphorylation of PKC-δ 20 μM ATP was used to start the 40-min reaction.
When hBVR or its mutants were tested for their effect on PKC-δ activity, they were pre-incubated for 5 min at room temperature with the PKC prior to substrate addition. The hBVR-derived peptides were used at concentrations indicated in appropriate figures.
When hBVR or its mutants were assayed as the sole substrates for PKC, the incubation conditions were as described above and the incubation was for 40 min at 30° C. unless specified otherwise. The reaction was terminated by the addition of Laemmli buffer, and the reaction products were detected by SDS-PAGE, transfer to PVDF membrane, and autoradiography.
Measurement of PKC-δ activity: PKC-δ assay in vitro was performed using 0.1 ng/μl purified recombinant human PKC-δ kinase with reaction conditions specified by the manufacturer. Effector molecules such as hBVR or peptides were added 5 min prior to substrate. The reaction was started by the addition of [γ-^32P]-ATP (Lerner-Marmarosh et al., “Human Biliverdin Reductase: A Member of the Insulin Receptor Substrate Family with Serine/Threonine/Tyrosine Kinase Activity,” Proc. Natl. Acad. Sci. U.S.A. 102(20):7109-7114 (2005), which is hereby incorporated by reference in its entirety). Reaction products were detected either by gel electrophoresis and autoradiography or by the p81 filter assay. PKC-δ activity on agarose beads was also measured. Cell lysates were immunoprecipitated with anti-PKC-δ antibody followed by protein A/G agarose. The immunoprecipitates were used in kinase reactions containing 50 μM PKC-δ specific peptide substrate as above; incorporation of ^32P was measured by p81 method.

PKC-δ [2] = molecular target: T1, PKC-δ; assay: PMA-induced PKC-δ membrane translocation, confocal microscopy; format: cell-based; set-up: inserting the open reading frame of PKC-δ into the plasmid pDsRed2-C1; expressed in transfected cells; host or cells: 293A; conditions: 10 μM myristoylated peptide, PMA 15 min, FIG. 5E
Procedure: Confocal microscopy: Experimental protocols were based on those described by Edwards et al., “Carboxyl-Terminal Phosphorylation Regulates the Function and Subcellular Localization of Protein Kinase C betall,” J. Biol. Chem. 274:6461-6468 (1999), which is hereby incorporated by reference in its entirety. 293A cells were grown in a chamber slide system (Nalge-Nunc International Corp., Naperville, Ill.). Cells were transfected with pEGFP-hBVR and/or the plasmid expressing Ds2-Red-PKC-δ fusion protein. After a 24 h starvation period, cells were fixed for 10 min in 4% Para-formaldehyde in PBS and permeabilized with 1% Triton X-100 in PBS. The cells were mounted with Vectashield (Vector Laboratories, Inc. Burlingame, Calif.), containing DAPI to visualize the nuclei. Non-transfected cells were permeabilized as above, treated with 1:150 dilution of polyclonal anti-PKC-δ antibodies, washed, blocked, and then treated with polyclonal anti-hBVR antibodies. The PBS-washed cells were then treated with Rhodamine-red-conjugated donkey anti-rabbit IgG antibodies (Jackson ImmunoResearch, West Grove, Pa.) for 30 min, followed by mounting. A Leica TCS SP (model DMRE) confocal microscope was used (Maines et al., “Human Biliverdin Reductase: A Previously Unknown Activator of Protein Kinase C-βII,” J. Biol. Chem. 282:8110-8122 (2007), which is hereby incorporated by reference in its entirety).

T2 sequence (Q05655 whole entry): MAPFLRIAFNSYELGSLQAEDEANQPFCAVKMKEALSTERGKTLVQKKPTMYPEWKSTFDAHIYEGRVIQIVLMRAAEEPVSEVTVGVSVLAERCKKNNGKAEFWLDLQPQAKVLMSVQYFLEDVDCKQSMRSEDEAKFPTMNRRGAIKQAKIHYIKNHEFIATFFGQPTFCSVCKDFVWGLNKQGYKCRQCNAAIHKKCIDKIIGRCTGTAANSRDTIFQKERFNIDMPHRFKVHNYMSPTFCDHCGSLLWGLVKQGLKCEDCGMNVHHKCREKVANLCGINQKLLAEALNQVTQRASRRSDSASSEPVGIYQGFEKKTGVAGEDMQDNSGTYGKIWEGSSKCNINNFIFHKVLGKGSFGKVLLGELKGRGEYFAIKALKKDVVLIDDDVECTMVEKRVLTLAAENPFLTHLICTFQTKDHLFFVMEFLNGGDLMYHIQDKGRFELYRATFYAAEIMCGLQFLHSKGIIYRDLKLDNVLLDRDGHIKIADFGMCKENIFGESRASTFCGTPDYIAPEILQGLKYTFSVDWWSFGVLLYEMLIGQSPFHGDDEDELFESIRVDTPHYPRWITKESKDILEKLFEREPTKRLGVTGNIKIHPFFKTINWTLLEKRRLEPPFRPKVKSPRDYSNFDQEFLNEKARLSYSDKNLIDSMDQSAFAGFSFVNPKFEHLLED
T3 sequence (Q05655 whole entry): as above
T3 sequence (P27361 2-379 limits assumed): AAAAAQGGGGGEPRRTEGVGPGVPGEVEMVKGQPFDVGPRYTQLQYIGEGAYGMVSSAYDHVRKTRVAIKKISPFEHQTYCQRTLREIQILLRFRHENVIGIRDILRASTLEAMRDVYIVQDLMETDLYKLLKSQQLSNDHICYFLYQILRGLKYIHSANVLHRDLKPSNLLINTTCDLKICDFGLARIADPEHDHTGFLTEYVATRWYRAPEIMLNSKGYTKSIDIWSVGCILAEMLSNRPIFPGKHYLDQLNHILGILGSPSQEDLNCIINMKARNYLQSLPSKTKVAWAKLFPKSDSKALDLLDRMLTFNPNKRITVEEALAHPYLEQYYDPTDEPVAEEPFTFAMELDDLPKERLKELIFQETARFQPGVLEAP
T3 sequence (P28482 2-360 limits assumed): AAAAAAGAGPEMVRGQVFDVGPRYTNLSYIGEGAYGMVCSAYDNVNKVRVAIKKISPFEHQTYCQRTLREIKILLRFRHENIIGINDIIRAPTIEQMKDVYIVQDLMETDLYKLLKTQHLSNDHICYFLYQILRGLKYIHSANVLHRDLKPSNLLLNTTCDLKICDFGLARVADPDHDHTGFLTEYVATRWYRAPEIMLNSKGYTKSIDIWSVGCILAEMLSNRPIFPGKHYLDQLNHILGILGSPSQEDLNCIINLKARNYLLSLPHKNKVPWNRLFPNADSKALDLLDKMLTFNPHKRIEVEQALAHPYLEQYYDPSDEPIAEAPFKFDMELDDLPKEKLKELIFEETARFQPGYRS
T1 sequence (Q05655 whole entry): as the sequence (Q05655 whole entry) above

CC(=O)c1c(O)c(C)c(O)c(Cc2c(O)c3c(c(C(=O)/C=C/c4ccccc4)c2O)OC(C)(C)C=C3)c1O [Rottlerin, reference compound]
PKC-δ activation by PMA and hBVR in cells overexpressing the kinase (PKC-δ [1]): significant reduction

FGFPAFSG (BVR peptide) [hBVR-derived hydrophobic (C-box) peptide]
association between hBVR and PKC-δ, effect of peptide (hBVR and PKC-δ): completely blocked | association of PKC-δ and ERK1/2, effect of peptide (PKC-δ and ERK1/2): inhibitory

GLAANAYLSFHFK (BVR peptide) [second variant of the aa222-234 peptide, upstream lysine and arginine residues replaced by alanine]
phosphorylation of variant peptides as PKC-δ substrates (recombinant human PKC-δ): not a substrate

GLKRNRYLAFHFK (BVR peptide) [aa222-234 peptide with target serine replaced by alanine]
phosphorylation of variant peptides as PKC-δ substrates (recombinant human PKC-δ): not a substrate

GLKRNRYLAFHFKSGSL (BVR peptide) [alanine-mutant peptide (hBVR aa222-238), longer alanine-mutant peptide that includes two additional serines]
phosphorylation of variant peptides as PKC-δ substrates (recombinant human PKC-δ): markedly decreased phosphorylation

KKRILHCLGLA (BVR peptide) [hBVR-derived D-box peptide]
association between hBVR and PKC-δ, effect of peptide (hBVR and PKC-δ): slight decrease in binding | association of PKC-δ and ERK1/2, effect of peptide (PKC-δ and ERK1/2): failed to block

SFHFKSGSL (Myristoyl-SFHFKSGSL) [hBVR-based peptide aa230-238]
inhibition of phosphorylation of the commercial substrate (recombinant human PKC-δ; 50 μM substrate/10 μM inhibitor, FIG. 5A): clearly differed | PKC-δ translocation to the cell membrane upon PMA (PKC-δ [2]): did not significantly affect

aa290-296: hBVR-derived peptide containing S294 in consensus PKC phosphorylation motif (KYCCSRK; UniProt P53004 290-296, looked up, fragment)
phosphate incorporated into hBVR-derived peptides by PKC-δ (recombinant human PKC-δ): several fold increase

hBVR aa18-23: hBVR-derived peptide containing S21 in consensus PKC phosphorylation motif (RAGSVR; UniProt P53004 18-23, looked up, fragment)
phosphate incorporated into hBVR-derived peptides by PKC-δ (recombinant human PKC-δ): several fold increase
